Measured values reported in the supplement of paper PMC10949913.

Key:
Experiment in all cases: area under concentration-response curve (viability) (AUC (a.u.)); higher = less active
Settings in all cases: 48 h
CU-ACC1 = system: CU-ACC1
Method in brief: (§1)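 Three adrenocortical carcinoma cell lines in 1,536-well plates received 23 nL of each library compound at 11 concentrations and were read with CellTiter-Glo after 48 h, with 15 minutes at room temperature before measuring luminescence. Vehicle and empty-well controls served for per-plate normalisation. AC50 and area under the curve were extracted from fitted concentration-response curves, discarding all curve classes other than inhibitory or non-responding.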

CU-ACC2 = system: CU-ACC2
Method in brief: as §1

NCI-H295R = system: NCI-H295R
Method in brief: as §1

SMILES | area under concentration-response curve (CU-ACC1) | area under concentration-response curve (CU-ACC2) | area under concentration-response curve (NCI-H295R)
C#CCN[C@@H]1CCc2ccccc21 | 565 | 642 | 590
ClC1=CC=C2N/C3=N/C(=O)CN3CC2=C1Cl | 519 | 626 | 542
CO[C@@H]1[C@H](N(C)C(=O)c2ccccc2)C[C@H]2O[C@]1(C)n1c3ccccc3c3c4c(c5c6ccccc6n2c5c31)C(=O)NC4 | 522 | 476 | 492
CN1C(=O)\C(=C/C(=C1/NC2=C(F)C=C(I)C=C2)C(=O)NOCCO)C | 335 | 519 | 550
COC[C@@H](NC(C)=O)C(=O)NCc1ccccc1 | 503 | 619 | 560
CC(C)C(=O)OCC(=O)[C@@]12O[C@@H](O[C@@H]1C[C@H]3[C@@H]4CC\C5=C\C(=O)\C=C/[C@]5(C)[C@H]4[C@@H](O)C[C@]23C)C6CCCCC6 | 523 | 606 | 531
C[C@H]1COC2=C3N1\C=C(C(O)=O)/C(=O)C3=CC(=C2N4CCN(C)CC4)F | 522 | 650 | 595
OC(COC1=C2C(=O)\C=C(/OC2=CC=C1)C([O-])=O)COC3=C4C(=O)\C=C(/OC4=CC=C3)C([O-])=O | 527 | 624 | 555
N=C(N)NN.N=C(N)NN.O=S(=O)(O)O | 503 | 559 | 524
O=C1CCCC(=O)C1C(=O)c1ccc(C(F)(F)F)cc1[N+](=O)[O-] | 565 | 576 | 545
C[N]1C=C(C=N1)C2=C3\C=N/NC(=O)C4=C3C(=CC(=C4)NC(=O)[C@H](N)C5CCCCC5)[NH]2 | 530 | 594 | 555
C[N]1C=C(C2=CC=CC=C12)/C3=C(/C(=O)NC3=O)C4=C[N](C)C5=CC(=CC=C45)[N+]([O-])=O | 611 | 608 | 454
C[C@@H]1C\C2=C(CCC(=O)C2)/[C@H]3CC[C@@]4(C)[C@@H](CC[C@@]4(O)C#C)[C@H]13 | 560 | 592 | 547
[O-]C(=O)C/1=N/C(=O)NC(=O)N1 | 418 | 608 | 551
Cc1n[nH]c(C)c1Cc1sc2c(c1C(=O)N1C[C@H](O)CO1)c(=O)n(C)c(=O)n2CC(C)C | 379 | 597 | 554
CO[C@H]1C[C@@H]2CC[C@@H](C)[C@@](O)(O2)C(=O)C(=O)N2CCCC[C@H]2C(=O)O[C@H]([C@H](C)C[C@@H]2CC[C@@H](OC(=O)C(C)(CO)CO)[C@H](OC)C2)CC(=O)[C@H](C)/C=C(\C)[C@@H](O)[C@@H](OC)C(=O)[C@H](C)C[C@H](C)/C=C/C=C/C=C/1C | 488 | 483 | 530
O=C(O)c1ccccc1C(=O)Nc1ccc(-c2ccccc2)cc1 | 514 | 580 | 491
CCOc1ccccc1N/N=C1/C(=O)N(c2nc(-c3ccccc3)cs2)N=C1C | 569 | 639 | 570
C[C@]12CCC3[C@@H](CC[C@H]4NC(=O)\C=C/[C@]34C)[C@@H]1CC[C@@H]2C(=O)NC5=CC(=CC=C5C(F)(F)F)C(F)(F)F (some centres undefined) | 557 | 645 | 578
CCCc1cc(C(N)=S)ccn1 | 587 | 649 | 581
COc1cc2nccc(Oc3ccc(NC(=O)NC4CC4)c(Cl)c3)c2cc1C(N)=O | 516 | 623 | 582
O=NN(CCCl)C(=O)NCCCl | 454 | 522 | 466
Cc1cnc(NC(=O)C2=C(O)c3ccccc3S(=O)(=O)N2C)s1 | 393 | 409 | 396
N#Cc1ccnc(N2C(=O)CC[C@H]2C(=O)N(c2cncc(F)c2)C(C(=O)NC2CC(F)(F)C2)c2ccccc2Cl)c1 (some centres undefined) | 500 | 602 | 578

SMILES | area under concentration-response curve (CU-ACC1) | area under concentration-response curve (CU-ACC2) | area under concentration-response curve (NCI-H295R)
Nc1nc(N)nc(-c2cc(Cl)ccc2Cl)n1 | 409 | 441 | 410
CC(C)CC(=O)N[C@H](C(=O)N[C@H](C(=O)N[C@@H](CC(C)C)[C@@H](O)CC(=O)N[C@@H](C)C(=O)N[C@@H](CC(C)C)[C@@H](O)CC(=O)O)C(C)C)C(C)C | 537 | 538 | 485
FC(F)(F)c1ccc(CNc2ccc(Cc3c[nH]c4ncc(Cl)cc34)cn2)cn1 | 555 | 630 | 582
O=C(Cc1ccc(-c2ccc(OCCN3CCOCC3)cc2)cn1)NCc1ccccc1 | 397 | 531 | 493
COc1cc(C(=O)N[S+](=O)([O-])c2ccccc2C)ccc1Cc1cn(C)c2ccc(NC(=O)OC3CCCC3)cc12 | 513 | 595 | 488
NC(CC1c2ccccc2Oc2ccccc21)(C(=O)O)C1CC1C(=O)O (centres undefined) | 530 | 621 | 512
Nc1cc(c(cc1S(=O)(N)=O)S(N)(=O)=O)C(/Cl)=C(/Cl)Cl | 505 | 590 | 531
CCN1/C(=C/C(C)=O)Sc2ccc(OC)cc21 | 467 | 569 | 515
CC1=CC/2=C(C=C1C)N(C[C@@H](O)[C@@H](O)[C@@H](O)CO)C/3=N/C(=O)NC(=O)C3=N2 | 481 | 586 | 505
OC1=C(C=CC=C1)C2=CC=C(C=C2)C3=CSC4=C3C(=C(/C#N)C(=O)N4)/O | 535 | 626 | 570
Clc1cc2c(NC3CCCC3)nnc(-c3ccncc3)c2cc1Cl | 581 | 609 | 518
CCNC(=O)C[C@H]1/N=C(/C2=CC=C(Cl)C=C2)C3=CC(=CC=C3[N]4C(=NN=C14)C)OC | 362 | 452 | 455
C=C(c1ccc(C(=O)O)cc1)c1cc2c(cc1C)C(C)(C)CCC2(C)C | 509 | 500 | 511
O=C(NCC(=O)N1CCCC1)Nc1ccc2cnccc2c1 | 565 | 633 | 569
CC(N)C12CC3CC(CC(C3)C1)C2 (centres undefined) | 507 | 523 | 494
COC1=CC=CC=C1C2=CC=CC(=C2)C/3=C(O)/C4=CC(=C(Cl)C=C4NC3=O)C#N | 542 | 589 | 562
CN1CC(=O)\N=C1\NC(=O)NC2=CC(=CC=C2)Cl | 497 | 566 | 486
COc1ccc(C(=O)N2CCCC2=O)cc1 | 533 | 655 | 573
CC(=O)SCC(Cc1ccccc1)C(=O)NCC(=O)OCc1ccccc1 (centres undefined) | 556 | 582 | 573
NNCCc1ccccc1.O=S(=O)(O)O | 450 | 530 | 486
CN(N=O)C(=O)N[C@@H]1[C@@H](O)[C@H](O)[C@@H](CO)O[C@@H]1O | 502 | 590 | 548
NC/1=N/C(=O)N(C[C@@H](CO)OC[P](O)(O)=O)/C=C1 | 465 | 522 | 496
COc1ccc2[nH]c(C(=O)N3CCC(CC(C)(C)O)CC3)cc2c1 | 484 | 609 | 572
CCCN[S+](=O)([O-])Nc1ncnc(OCCOc2ncc(Br)cn2)c1-c1ccc(Br)cc1 | 381 | 567 | 518
